# Experimental data published in US6965033B2, “Bisamidate phosphonate prodrugs” (Metabasis Therapeutics, Inc., priority 1999, dated 2005).
# How the values were obtained:
# [1] = Metabolism of 50.6 in monkey plasma; type: in vitro ADME; conditions: 100 μM
# Experimental: (§1) The metabolism of 50.6 was evaluated in rat, monkey, and human plasma by reverse phase HPLC with use of a Beckman Ultrasphere ODS column (4.6×150 mm) equipped with an Alltech All-Guard column. The column was equilibrated with 20 mM potassium phosphate, pH 6.2 and eluted with a linear gradient of 0-60% acetonitrile over 20 minutes at a flow rate of 1.5 mL/min and at a temperature of 40° C. UV absorbance was monitored at 300 nm. […] The metabolite formed in rat plasma was collected and subjected to mass spectrum analysis at Mass Consortium Corporation (San Diego, Calif.). […] This molecular weight is consistent with that of a monophosphoramidate intermediate. This intermediate is likely formed via a reaction mechanism in which the prodrug first undergoes full de-esterification followed by intramolecular, hydrolytic cleavage of one of the amino acyl substituents. Formation of the postulated monophosphoramidate intermediate was confirmed following the synthesis of a synthetic standard, Compound C. The standard had the identical HPLC and UV profile as the metabolite formed in plasma samples.
# [2] = Metabolism of 50.6 in rat plasma; type: in vitro ADME; conditions: 100 μM
# Experimental: as §1
# ZDF rat = test: Chronic Oral Efficacy in the ZDF Rat; type: in vivo
# Experimental: Methods: ZDF rats (10 weeks of age) were maintained either on powdered Purina 5008 rat chow (n=10) or the same powdered chow supplemented with 0.4% 50.6 (n=8). Blood glucose measurements were made as described in Example E at baseline and at weekly intervals thereafter for a total of 3 weeks. Statistical analysis was performed using the Student's t test. Means±standard error of the means are shown.
# [3] = tested on: Human Liver Phosphoramidase; test: Structure Activity Relationship of Human Liver Phosphoramidase (human liver homogenate); type: in vitro ADME; conditions: pH 7.4
# Experimental: Human liver, purchased from the Anatomic Gift Foundation (Laurel, Md.), was homogenized in Krebs-bicarbonate buffer and clarified by a slow-speed centrifugation. Prodrug metabolism was evaluated in reaction mixtures containing human liver homogenate (4 mgs protein), 50 mM Tris-HCl, pH 7.4, 10 mM MgCl2, and 10 mM dithiothreitol. At various time intervals over the course of 2 hours, aliquots were removed from the reaction mixtures and deproteinated by addition of methanol to 60%. Following clarification by centrifugation, metabolites were analyzed by reverse phase HPLC with use of a Beckman Ultrasphere ODS column (4.6×150 mm) equipped with an Alltech All-Guard column. The column was equilibrated with 20 mM potassium phosphate, pH 6.2 and eluted with a linear gradient of 0-60% acetonitrile over 20 minutes at a flow rate of 1.5 mL/min and at a temperature of 40° C. UV absorbance was monitored at 300 nm. Most of the prodrugs evaluated were metabolized via a non-rate limiting, esterase-catalyzed step to their monophosphoramidate form within 5 minutes of incubation. The rate of phosphonic acid appearance was therefore essentially a reflection of the rate of the final […] cleavage step. Results for representative prodrugs for which the esterase-catalyzed step was non-rate limiting are shown below: […]
# [4] = Metabolism of 50.6 in human plasma; type: in vitro ADME; conditions: 100 μM
# Experimental: as §1
# [5] = tested on: Zucker Diabetic Fatty (ZDF rat); test: Acute Oral Efficacy in the ZDF Rat; type: in vivo
# Experimental: Methods: ZDF rats were purchased from Genetics Inc (Indianapolis, Ind.) at 8 weeks of age. Animals were maintained under standard vivarium conditions and provided with Purina 5008 chow and water ad libitum. At 10-12 weeks of age, rats with blood glucose levels>500 mg/dl were selected and dosed orally either with vehicle (PEG 400), or prodrug (60 mg/kg). Blood glucose levels were monitored at regular intervals for 6 hours following dosing. Blood samples were taken from tail vein nicks and analyzed by means of a HemoCue glucose analyzer (Hemocue, Mission Viejo, Calif.). Statistical analysis was performed using the Student's t test. Means±standard error of the means are shown.
# human hepatocytes = test: Metabolism of 50.6 in Human Hepatocytes; type: in vitro ADME; conditions: 10 μM
# Experimental: Cryopreserved human hepatocytes were obtained from In Vitro Technologies and thawed according to the vendor's recommendations. Cells were incubated at 37° C. in a Krebs-bicarbonate based buffer containing 50.6 at 10 μM. At various time points over the course of 4 hours, aliquots of cells were removed and extracted by addition of methanol to 60%. Cell extracts were clarified by centrifugation and analyzed by reverse phase HPLC with use of a Beckman Ultrasphere ODS column (4.6×150 mm) equipped with an Alltech All-Guard column. […]. Disappearance of 50.6 was rapid and essentially complete within 60 minutes of incubation. […] The initial rate of 3.1 formation was 24 pmol/million cells/minute. […]
smiles,measurement,setting,value
"CCOC(=O)[C@H](C)NP(=O)(N[C@@H](C)C(=O)OCC)c1ccc(-c2nc(N)sc2CC(C)C)o1 [Compound 50.6, 2-Amino-5-isobutyl-4-{2-[5-(N,N′-bis((S)-1-ethoxycarbonyl)ethyl)phosphonamido]furanyl}thiazole]",metabolites formed in plasma,[1],single metabolite
same,metabolites formed in plasma,[2],single metabolite
same,"Blood glucose, t21 days",ZDF rat; 21 days on chow supplemented with 0.4% drug,436 ± 41 mg/dL
same,"Blood Glucose, Tbaseline","ZDF rat; baseline, chow with 0.4% drug group",674 ± 20 mg/dL
same,"Phosphoramidase Activity (Rate of 3.1 or 3.58 production, nmoles/mn/mg liver protein)",[3],0.022 nmoles/mn/mg liver protein
same,metabolites formed in plasma,[4],single metabolite
same,"Blood Glucose, T6h",[5]; 6 h after 60 mg/kg oral,406 ± 12 mg/dL
same,"Blood Glucose, % Change","[5]; baseline to 6 h, 60 mg/kg oral",−25%
same,"Blood Glucose, Tbaseline","[5]; baseline, 60 mg/kg oral group",544 ± 25 mg/dL
same,time to essentially complete disappearance,"human hepatocytes; cryopreserved human hepatocytes, 37° C.",≤ 60 min
same,initial rate of 3.1 formation,human hepatocytes; human hepatocytes,24 pmol/million cells/minute
same,metabolites detected,human hepatocytes; human hepatocytes,Compound C and 3.1
